Experimental findings from patent publication US8674096B2, “Substituted imidazo[1,5-a]quinoxalin-4-ones as phosphodiesterase 9 inhibitors” (priority 2009, dated 2014) are described below.

One may read the melting point as the temperature, or range, at which the solid turns liquid. For the compound `Cc1cc2c(cc1C(=O)N1Cc3ccc(F)cc3C1)[nH]c(=O)c1cnc(C3CCCC3)n12`, the melting point was 228 to 231 °C. In turn, `Cc1cc2c(cc1C(=O)N1Cc3cccc(C)c3C1)[nH]c(=O)c1cnc(C3CCOCC3)n12.Cl` gave a melting point of 206 to 208 °C. `Cc1cc2c(cc1C(=O)N1Cc3cccc(Cl)c3C1)[nH]c(=O)c1cnc(C3CCOCC3)n12.Cl`: the melting point was in the range of 198 to 200 °C. The value for `Cc1cc2c(cc1C(=O)N1CCc3c(Cl)cccc3C1)[nH]c(=O)c1nnc(-c3sccc3C)n12` was 310 to 312 °C.

The compound `Cc1cc2c(cc1C(=O)N1CCc3cc(Cl)ccc31)[nH]c(=O)c1nnc(C(=O)C3CC3)n12.Cl` returned a melting point of 288 to 290 °C.

`CCCc1nnc2c(=O)[nH]c3cc(C(=O)N4CCN(c5ccccc5Cl)CC4)c(C)cc3n12` had a melting point of 186 to 188 °C. On to `Cc1cc2c(cc1C(=O)N1CCc3cccc(C(=O)O)c3C1)[nH]c(=O)c1cnc(C3CCOCC3)n12.Cl`, for which the melting point is 212 to 213 °C. `Cc1cc2c(cc1C(=O)N1CCc3c(Cl)cc(Cl)cc3C1)[nH]c(=O)c1cnc(C3CCOCC3)n12.Cl`: the melting point was 188 to 190 °C (dec.).

Take `Cc1cc2c(cc1C(=O)N1CCc3cnn(C)c3C1)[nH]c(=O)c1cnc(C3CCOCC3)n12`: the melting point was 192 to 194 °C (dec.). The value for `Cc1cc2c(cc1C(=O)N1CCc3cc(Cl)ccc31)[nH]c(=O)c1cnc(C3CCCOC3)n12.Cl` (stereo not shown) was 206 to 208 °C; that for `Cc1cc2c(cc1C(=O)N1Cc3cccc(C)c3C1)[nH]c(=O)c1cnc(C3CCCOC3)n12.Cl` (stereo not shown) was 283 °C (dec.); that for `Cc1ccc2c(c1)CCN2C(=O)c1cc2[nH]c(=O)c3cnc(C4CCCOC4)n3c2cc1C.Cl` (stereo not shown) was 204 to 206 °C. The value for `Cc1cc2c(cc1C(=O)N1CCc3cc(F)ccc31)[nH]c(=O)c1cnc(C3CCOC3)n12.Cl` (stereo not shown) was 186 to 188 °C. On to `Cc1cc2c(cc1C(=O)N1CCc3onc(-c4ccc(Cl)cc4)c3C1)[nH]c(=O)c1nnc(C3CCOC3)n12.Cl` (stereo not shown), for which the melting point lay in the range of 219 to 221 °C.

As for `Cc1cc2c(cc1C(=O)N1Cc3cccc(F)c3C1)[nH]c(=O)c1cnc(C3CCOC3)n12.Cl` (stereo not shown), the melting point lay within 203 to 205 °C. As to `Cc1cc2c(cc1C(=O)N1CCc3cc(C4CC4)cnc31)[nH]c(=O)c1nnc(C3CCCC3)n12`, the melting point is 208 to 209 °C.

The compound `Cc1cc2c(cc1C(=O)N1CCc3cc(F)c(Cl)cc31)[nH]c(=O)c1nnc(C3CCOCC3)n12.Cl` yielded a melting point of 316 to 319 °C. With `Cl.O=C(c1cc2[nH]c(=O)c3cnc(C4CCOCC4)n3c2cc1C1CC1)N1CCc2cc(F)ccc21`, the melting point was 318 to 321 °C (dec.).

Take `Cc1cc2c(cc1C(=O)N1Cc3ccccc3C1)[nH]c(=O)c1nnc(C3CCC3)n12.Cl`: the melting point is 236 °C (dec.). For the compound `COc1cc2c(cc1C(=O)N1CCc3cc(F)ccc31)[nH]c(=O)c1cnc(C3CCOCC3)n12.Cl`, the melting point was 321 to 324 °C (dec.).

In the case of `COc1cc2c(cc1C(=O)N1Cc3ccccc3C1)[nH]c(=O)c1cnc(C3CCOCC3)n12.Cl`, the melting point is 199 to 201 °C (dec.). `Cc1cc2c(cc1C(=O)N1Cc3c(F)ccc(F)c3C1)[nH]c(=O)c1cnc(C3CCCOC3)n12` (stereo not shown) had a melting point of 223 to 225 °C.

In the case of `Cc1cc2c(cc1C(=O)N1Cc3ccccc3C1)[nH]c(=O)c1nnc(C3CCC(F)(F)CC3)n12`, the melting point is 322 °C (dec.). The result for `Cc1cc2c(cc1C(=O)N1CCc3cccnc31)[nH]c(=O)c1nnc(C3CCC(F)(F)CC3)n12.Cl` reads 310 °C (dec.); that for `Cc1cc2c(cc1C(=O)N1CCc3cc(Cl)ccc31)[nH]c(=O)c1c(C)nc(C3CCOCC3)n12.Cl`, 198 °C (dec.); that for `COc1cc2c(cc1C(=O)N1CCc3cc(C4CC4)cnc31)[nH]c(=O)c1cnc(C3CCOCC3)n12`, 297 °C (dec.).

In turn, `Cc1cc2c(cc1C(=O)N1CCc3cc(F)c(F)cc31)[nH]c(=O)c1cnc(C3CCOCC3)n12.Cl` displayed a melting point of 287 to 288 °C. With `Cl.O=C(c1cc2[nH]c(=O)c3cnc(C4CCOCC4)n3c2cc1C1CC1)N1Cc2cccc(F)c2C1`, the melting point fell in the range of 205 to 207 °C. In the case of `COc1cc2c(cc1C(=O)N1Cc3cccc(F)c3C1)[nH]c(=O)c1cnc(C3CCOCC3)n12.Cl`, the melting point lay within 195 to 197 °C. `Cc1cc2c(cc1C(=O)N1CCc3cccnc31)[nH]c(=O)c1nnc(C3CCCOC3)n12` (stereo not shown): the melting point was 314 °C (dec.). For the compound `Cc1cc2c(cc1C(=O)N1CCc3sccc3C1)[nH]c(=O)c1nnc(C3CCOCC3)n12.Cl`, the melting point was 216 to 219 °C. As to `CN(C)CCOc1cc2c(cc1C(=O)N1CCc3cc(Cl)ccc31)[nH]c(=O)c1cnc(C3CCOCC3)n12`, the melting point is 219 to 221 °C (dec.). `Cc1cc2c(cc1C(=O)N1CCc3cc(Br)cnc31)[nH]c(=O)c1nnc(C3CCC(F)(F)CC3)n12`: the melting point is 343 °C (dec.).

As for `Cc1cc2c(cc1C(=O)N1CCc3cc(Br)cnc31)[nH]c(=O)c1nnc(C3CCCOC3)n12` (stereo not shown), the melting point is 218 to 220 °C (dec.). For the compound `CCCc1nnc2c(=O)[nH]c3cc(C(=O)N4Cc5ccc(F)cc5C4)ccc3n12`, the melting point is 293 °C (dec.).

On to `Cc1cc2c(cc1C(=O)N1CCc3cc(Cl)ccc31)[nH]c(=O)c1ncc(C3CCCC3)n12.Cl`, for which the melting point is 279 °C (dec.). The compound `Cc1cc2c(cc1C(=O)N1CCc3cc(Cl)ccc31)[nH]c(=O)c1nnc(CC3CCSCC3)n12.Cl` returned a melting point of 215 to 218 °C. The result for `COc1cc2c(cc1C(=O)N1CCc3cc(Cl)ccc31)[nH]c(=O)c1nnc(C3CCOCC3)n12.Cl` reads 284 °C (dec.). The value for `Cc1cc2c(cc1C(=O)N1CCc3cc(Cl)ccc31)[nH]c(=O)c1nnc(C3CC(F)(F)C3)n12` was 243 to 245 °C; that for `Cc1cc2c(cc1C(=O)N1Cc3ccccc3C1)[nH]c(=O)c1nnc(-c3ccccc3)n12` was 316 °C (dec.).

Consider `Cc1ccc2c(c1)CCN2C(=O)c1cc2[nH]c(=O)c3c(C)nc(C4CCOCC4)n3c2cc1C.Cl`, for which the melting point was 264 to 266 °C (dec.). As for `Cc1c(C(=O)N2CCc3cc(Cl)ccc32)ccc2c1[nH]c(=O)c1cnc(C3CCOCC3)n12`, the melting point was 290 °C (dec.). `Cc1cc2c(cc1C(=O)N1CCCc3ccccc3C1)[nH]c(=O)c1cnc(C3CCOCC3)n12.Cl` displayed a melting point of 170 to 172 °C. Turning to `COCc1cc2c(cc1C(=O)N1CCc3cc(Cl)ccc31)[nH]c(=O)c1nnc(C3(C)CCOCC3)n12.Cl`, the melting point was 198 to 201 °C.

`COCc1cc2c(cc1C(=O)N1CCc3cc(F)c(F)cc31)[nH]c(=O)c1nnc(C3(C)CCOCC3)n12.Cl` showed a melting point of 195 to 198 °C.

`Cc1ccc2c(c1)CCN2C(=O)c1cc2[nH]c(=O)c3cnc(C4CCOCC4)n3c2cc1C.Cl`: the melting point lay in the range of 282 to 284 °C.

As to `Cc1cc2c(cc1C(=O)N1CCc3ccc(C(F)(F)F)cc31)[nH]c(=O)c1cnc(C3CCOCC3)n12.Cl`, the melting point fell in the range of 276 to 277 °C. Regarding `Cc1cc2c(cc1C(=O)N1Cc3ccccc3C1)[nH]c(=O)c1nnc([C@H]3CC[C@H](C)CC3)n12`, the melting point was 318 to 321 °C. Take `Cc1cc2c(cc1C(=O)N1Cc3cccc(C)c3C1)[nH]c(=O)c1nnc(C3CCOCC3)n12`: the melting point was 262 to 263 °C.
